# Experiments:
# [1] = tested on: PZR Y241 and Y263 phosphorylation; test: Shp2E76A-induced PZR tyrosyl phosphorylation in NIH 3T3 cells, immunoblot; assay type: cell-based; conditions: cells expressing activated Shp2 (Shp2-E76A)
# [2] = tested on: PZR Y241 and Y263 phosphorylation; test: Shp2 mutant-induced PZR tyrosyl phosphorylation in HEK-293 cells, immunoblot; assay type: cell-based; conditions: HEK-293 cells transfected with Shp2 mutants; 5 μM SU6656
SMILES,concentration at which Shp2-E76A-induced PZR hyper tyrosyl phosphorylation was inhibited [1] [µM],NS and NSML Shp2 mutant-induced PZR hypertyrosyl phosphorylation [2]
CC(C)(C)n1nc(-c2ccc(Cl)cc2)c2c(N)ncnc21 [PP2],5,
CN(C)S(=O)(=O)c1ccc2c(c1)/C(=C/c1cc3c([nH]1)CCCC3)C(=O)N2 [SU6656],1,can be inhibited

# Reference: US10471059B2, “Compositions and methods of using tyrosine kinase inhibitors” (YALE UNIVERSITY, priority 2015, dated 2019)
